In publication PMC10518255, “A first-in-class pan-lysyl oxidase inhibitor impairs stromal remodeling and enhances gemcitabine response and survival in pancreatic cancer” (Nature Cancer, 2023):
“And” between values parts separate entries of the source, which are not always exact repeats. Identical values can stand only once.

How the values were obtained:
TKCC10 human PDX tumors = assay: TKCC10 human model survival study (Extended Data Fig. 5k); type: in vivo, mouse
Procedure: Subcutaneous PDX studies were performed by implanting early passage PDX pieces (~4 mm^3) or TKCC10 CCs (1.5 × 10^6 cells per mouse in 100 μl PBS/Matrigel 1:1) into female (PDX) or male (TKCC10) 8-week-old immunocompromised nude Balb/c-Fox1nuAusb mice subcutaneously on the left flank. For the duration of the study, mice were kept in conventional caging with environmental enrichment, access to standard chow, water ad libitum and 12-h light–dark cycle at ambient temperature and humidity. […] Tumor size was monitored every second day by calipers. Tumor volume was calculated using the formula (length × width^2)/2. […]
Extended Data Fig. 5 PXS-5505 in combination with gemcitabine in vivo. a. […] Signal is defined as the enzyme activity in the aorta, while noise is measured in the presence of a high concentration (300 µM) BAPN to abolish any lysyl oxidase family activity. […] FITC-dextran (molecular weight: 10 kDa) signal quantification from KPC tumor end point from each treatment group (vehicle n = 3 biologically independent animals, PXS-5505 n = 5 biologically independent animals, Gem n = 5 biologically independent animals, PXS-5505 + Gem n = 5 biologically independent animals). […] P-values determined by Welchs t-test. […] Quantification of red birefringent (mature) collagen fibers from human PDXs at end point after 3 cycles of treatment, treated as indicated. […]

[1] = tested on: lysyl oxidase family members in KPC CAFs; assay: qRT-PCR of lysyl oxidase family members after treatment (Extended Data Figs. 2d, 3h); type: cell-based, mouse; parameters: qRT-PCR LOX (Ct) / qRT-PCR LOX ΔCt / qRT-PCR LOX ΔΔCt KPC CAF / qRT-PCR LOXL1 ΔCt / qRT-PCR LOXL1 ΔΔCt KPC CAF / qRT-PCR LOXL2 ΔCt / qRT-PCR LOXL2 ΔΔCt KPC CAF / qRT-PCR LOXL3 ΔCt / qRT-PCR LOXL3 ΔΔCt KPC CAF / qRT-PCR LOXL4 ΔCt / qRT-PCR LOXL4 ΔΔCt KPC CAF: dose or concentration left out as unconfirmed;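 on qRT-PCR LOX ΔCt: 30 µM PXS-5505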;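 on qRT-PCR LOXL2 ΔCt: 30 µM PXS-5505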;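 on qRT-PCR LOXL3 ΔCt: 30 µM PXS-5505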;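 on qRT-PCR LOXL4 ΔCt: 30 µM PXS-5505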
Procedure: RNA was isolated using the RNeasy mini kit (QIAGEN) according to the manufacturer’s instructions. Then, 1 μg of RNA was reverse transcribed using the Transcriptor First Strand cDNA Synthesis kit (Roche LifeScience) with anchored-oligo(dT)18 primers or the QuantiTect Reverse Transcription kit (QIAGEN). Real-time PCR was performed using the Roche LightCycler480 (Roche LifeScience) or QuantStudio 7 (Thermo Fisher). The following probe sets from Applied Biosystems, were used: LOX, Mm00495386; LOXL1, Mm01145738; LOXL2, Mm00804740; LOXL3, Mm01184867; LOXL4, Mm00446385; and GAPDH, Mm99999915. Primers and Roche Universal Probe Library probes used for RT–qPCR are described in Supplementary Table 4. Relative mRNA expression levels for each transcript of interest were normalized to GAPDH or ACTB (as indicated) and quantified using the comparative double ΔCt method (unless stated otherwise) for each biological replicate.
Extended Data Fig. 2 Characterization of cells derived from the KPC autochthonous model. a. Immunofluorescence staining of KPC CCs and KPC CAFs for the pancreatic epithelial cell marker CDH1 (green), DAPI (blue) and for the CAF marker α-SMA (yellow), DAPI (blue). Representative images from n = 3 biological independent samples. Scale bar = 30 μm. b. RNAseq reads for CAF and epithelial cell makers in KPC CAFs n = 3 biological independent samples. […] Data is presented as mean values ± SEM. […] Data presented as mean values +/− SD. […] Source data
Data presented as mean values +/− SD. f. […] Data presented as mean values +/− SD. […] Data presented as mean values +/− SD. […] Data presented as mean values +/− SD. Ordinary one-way ANOVA for multiple comparison test performed. Source data

[2] = 50 nM gemcitabine, 48 hours, per replicate
[3] = 50 nM gemcitabine, 48 hours, vs GAPDH, per replicate
[4] = 48 hour treatment, 30 M PXS-5505, replicates
[5] = 48 hour treatment, PXS-5505, replicates
[6] = 48 hour treatment, PXS-5505, vs GAPDH, replicates

Q: How did the “median survival (time under treatment after tumor reached 50 mm^3)” value (TKCC10 human PDX tumors) turn out when Nc1ccn([C@@H]2O[C@H](CO)[C@@H](O)C2(F)F)c(=O)n1 [Gem, gemcitabine] was run?
A: 29 days

Q: What about the “expression of lysyl oxidase family members” value ([1]; 50 nM gemcitabine for 48 hours) of the same compound?
A: increased

Q: And the “LOX ΔΔCt CC” value [1, 2]?
A: 1.655 and 2.327 and 2.145

Q: What about the “LOXL1 ΔΔCt CC” value [1, 2] of the same compound?
A: 1.866 and 1.895 and 1.813

Q: What about the “LOXL2 ΔΔCt CC” value [1, 2] of the same compound?
A: 2.3261 and 2.2233 and 1.33

Q: And the “LOXL3 ΔΔCt CC” value [1, 2]?
A: 1.66 and 2.86 and 2.05

Q: And the “LOXL4 ΔΔCt CC” value [1, 2]?
A: 2.014 and 1.617 and 1.18

Q: What about the “LOX ΔCt” value [1, 3] of the same compound?
A: 6.157 and 5.668 and 5.782

Q: What about the “LOXL1 ΔCt” value [1, 3] of the same compound?
A: 8.043 and 8.021 and 8.085

Q: And the “LOXL2 ΔCt” value [1, 3]?
A: 4.354 and 4.419 and 5.16

Q: And the “LOXL3 ΔCt” value [1, 3]?
A: 4.977 and 5.26 and 5.74

Q: What about the “LOXL4 ΔCt” value [1, 3] of the same compound?
A: 6.2696 and 6.5867 and 7.04

Q: Which results are given for Cl.Cl.NC/C=C(\F)CS(=O)(=O)c1cccc2cccnc12.O [PXS-5505, (Z)-3-fluoro-4-(quinolin-8-ylsulfonyl)but-2-en-1-amine dihydrochloride monohydrate]?
A: median survival (time under treatment after tumor reached 50 mm^3) (TKCC10 human PDX tumors): 16 days; qRT-PCR LOXL1 (Ct) [1, 4]: 27.9242 and 27.0668; qRT-PCR LOXL2 (Ct) [1, 4]: 25.5976 and 25.3053 and 25.9273; qRT-PCR LOXL3 (Ct) [1, 4]: 27.0409 and 26.0554 and 26.3059; qRT-PCR LOXL4 (Ct) [1, 4]: 27.6755 and 27.1763 and 27.4097; qRT-PCR LOX (Ct) [1, 5]: 27.9362 and 27.041 and 26.9697; qRT-PCR LOX ΔΔCt KPC CAF [1, 5]: 0.4495 and 1.003 and 0.5566; qRT-PCR LOXL1 ΔΔCt KPC CAF [1, 5]: 0.5108 and 0.4889 and 0.4223; qRT-PCR LOXL2 ΔΔCt KPC CAF [1, 5]: 0.6912 and 0.4472 and 0.4586; qRT-PCR LOXL3 ΔΔCt KPC CAF [1, 5]: 0.6435 and 0.6732 and 0.893; qRT-PCR LOXL4 ΔΔCt KPC CAF [1, 5]: 1.222 and 0.9127 and 1.225; qRT-PCR LOX ΔCt [1, 6]: 9.054 and 7.896 and 8.745; qRT-PCR LOXL1 ΔCt [1, 6]: 8.779 and 8.842; qRT-PCR LOXL2 ΔCt [1, 6]: 6.453 and 7.081 and 7.045; qRT-PCR LOXL3 ΔCt [1, 6]: 7.896 and 7.831 and 7.423; qRT-PCR LOXL4 ΔCt [1, 6]: 8.531 and 8.952 and 8.527; transcription of lysyl oxidase family members ([1]; PXS-5505 up to 300 µM): does not significantly alter transcription
